Assay results published in patent US8946218B2, “CCR2 receptor antagonists, method for producing the same, and use thereof as medicaments” (Boehringer Ingelheim International GmbH, priority 2010, dated 2015).

These compounds were tested against T1, CCR2 (Homo sapiens, UniProt P41597) (assay: Receptor membrane binding assay: [125I]MCP-1 binding to CCR2 on THP-1 cell membranes (SPA beads)). Conditions: THP-1 membranes, [125I]MCP-1, bound radioactivity after 8 h; read-out: hKi.
T1 construct: Membranes were prepared from THP-1 cells; endogenous in cells; host or cells: THP-1 (human acute monocytic leukaemia cells), membrane preparation
T1 sequence (P41597 whole entry): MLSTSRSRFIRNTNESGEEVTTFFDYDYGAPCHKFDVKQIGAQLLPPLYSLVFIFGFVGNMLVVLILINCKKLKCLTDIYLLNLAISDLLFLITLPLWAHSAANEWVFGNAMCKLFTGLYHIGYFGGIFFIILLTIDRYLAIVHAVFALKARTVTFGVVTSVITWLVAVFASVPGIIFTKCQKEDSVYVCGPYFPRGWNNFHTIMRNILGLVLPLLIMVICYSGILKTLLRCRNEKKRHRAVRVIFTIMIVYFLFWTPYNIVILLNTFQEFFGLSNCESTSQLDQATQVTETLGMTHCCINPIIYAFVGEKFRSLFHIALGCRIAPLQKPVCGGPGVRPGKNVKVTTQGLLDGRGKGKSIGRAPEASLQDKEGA
Experimental: The above exemplary substances have been tested for binding to CCR2 using a binding assay as outlined herein below:
THP-1 cells (human acute monocytic leukaemia cells) were cultured under standardized conditions at 37° C. and 5% CO2 in a humidified incubator. THP-1 cells were cultivated in RPMI 1640 medium (Gibco 21875) containing 1% MEM-NEAA (Gibso 11140) 2 mM L-glutamine, 1.5 g/L sodium bicarbonate, 4.5 g/L glucose, 10 mM HEPES and 1.0 mM sodium pyruvate, 90%; 10% fetal calf serum (FCS Gibco 10500-064).
Membranes were prepared from THP-1 cells. THP-1 cells were centrifuged at 300×g at 4° C. for 10 min. The cell pellet was resuspended in Phosphate Buffer Saline (PBS, including 10 μM Pefabloc and a protease inhibitor mix ‘complete’, Boehringer Mannheim (1 tablet/50 ml)), to a concentration of […]. The membrane preparation was performed by disrupting the cells by nitrogen […] (at 50 bar, for 1 h) in a “Nitrogen Bombe” (Parr Instrument). Cell debris was removed by centrifugation (800×g at 4° C., 1 min). The supernatant was centrifuged at 80000×g, 4° C. for 30 min to sediment the cell membranes. Usually 50 mg of protein (Bradford assay) were yielded from 1×10E9 cells. The membranes were resuspended in 25 mM HEPES, 25 mM MgCl2, 1 mM CaCl2, 10% Glycerine for storage in aliquots at −80° C. in 25 mM HEPES, 25 mM MgCl2, 1 mM CaCl2, 10% Glycerine and stored at −80° C.
Receptor Membrane Binding Assay:
Perkin Elmer NEX 332 Jod 125 MCP-1, Stock: 2200 Ci/mmol solved in 2000 μl assay buffer, stored at −20° C. THP-1 membrane were adjusted with 25 mM HEPES, pH 7.2; 5 mM MgCl2; 0.5 mM CaCl2; 0.2% BSA assay buffer to a concentration of 2.5 μg/15 μl. Amersham Biosciences PVT-WGA Beads (RPNQ0001) were adjusted with assay buffer to a concentration of 0.24 mg/30 μl. For preparation of the membrane-bead-suspension membranes and beads were incubated for 30 min at RT under rotation (60 rpm) with a ratio of 1:2. Test compounds dissolved in 100% DMSO to a concentration of 10 mM and are further diluted with 100% DMSO to 1 mM. All additional compound dilutions were obtained with assay buffer, final 1% DMSO. Compounds, membrane-bead-suspension and [125I]MCP-1 (ca. 25000 cpm/10 μl) were incubated. Bound radioactivity was determined by scintillation counter after 8 h. Determination of affinity of test compounds (dissociation constant hKi) is calculated by iterative fitting of experimental data using the “easy sys” program, which is based on law of mass action (Schittkowski K. (1994), Numerische Mathematik, Vol. 68, 129-142).

First: COc1nc(Nc2ccc(Cl)c(Cl)c2)c(C)c(C(=O)N2CCC(NC3CCOCC3F)CC2)n1 (stereo not shown) [Example 33h]
Second: Cc1c(Nc2ccc(Cl)c(Cl)c2)nc(C2CC2)nc1C(=O)N1CCC(N[C@@H]2CCOC[C@@H]2F)CC1 [Example 33r]
The Ki of the first is 2.2-fold higher: 2 nM for the first, 0.9 nM for the second. The second binds more tightly here.

First: COC1COCCC1NC1CCN(C(=O)c2ncnc(Nc3cc(C(F)(F)F)cc(C(F)(F)F)c3)c2C)CC1 (stereo not shown) [Example 2]
Second: CO[C@H]1COCC[C@H]1NC1CCN(C(=O)c2ncnc(Nc3ccc(Cl)c(C(F)(F)F)c3)c2C)CC1 [Example 31]
The Ki of the first is 44-fold lower: 121 nM for the first, 5310 nM for the second.

`COC1COCCC1NC1CCN(C(=O)c2ncnc(Nc3ccc4ccccc4c3)c2C)CC1` (stereo not shown) [Example 23] and `CO[C@@H]1COCC[C@@H]1NC1CCN(C(=O)c2ncnc(Nc3ccc4cc(Br)ccc4c3)c2C)CC1` [Example 43] are the same in Ki: 17 nM for the first, 17 nM for the second.

`Cc1c(Nc2cccc(C(F)(F)F)c2)nc(C2CC2)nc1C(=O)N1CCC(N[C@@H]2CCOC[C@@H]2F)CC1` [Example 33s] and `Cc1c(Nc2ccc(Cl)c(Cl)c2)nc(C2CC2)nc1C(=O)N1CCC(N[C@H]2CCOC[C@H]2F)CC1` [Example 33q] are within 1.5-fold of each other in Ki: 1 nM for the first, 0.8 nM for the second.

First: CO[C@H]1COCC[C@H]1NC1CCN(C(=O)c2cc(Nc3cccc(C(F)(F)F)c3)ncn2)CC1 [Example 6]
Second: COC1COCCC1NC1CCN(C(=O)c2ncnc(N(C)c3cccc(C(F)(F)F)c3)c2C)CC1 (stereo not shown) [Example 10]
The Ki of the first is 1.7-fold lower: 280 nM for the first, 481 nM for the second.

First: CO[C@@H]1COCC[C@@H]1NC1CCN(C(=O)c2nc(C(F)(F)F)nc(Nc3ccc(Cl)c(Cl)c3)c2C)CC1 [Example 33c]
Second: CO[C@@H]1COCC[C@@H]1NC1CCN(C(=O)c2ncnc(Nc3ccc(Cl)c(C(F)(F)F)c3)c2C)CC1 [Example 30]
The Ki of the first is 7400-fold lower: 0.2 nM for the first, 1480 nM for the second. The first binds more tightly here.

With `CO[C@H]1COCC[C@H]1NC1CCN(C(=O)c2ncnc(Nc3ccc4cc(Br)ccc4c3)c2C)CC1` [Example 42] the Ki was 20 nM.
